Measurements taken from patent US6875578B2, “System for cell-based screening” (priority 1997, dated 2005).

Legend:
[1] = tested on: microtubule arrays (tubulin-GFP chimera); experiment: Microtubule disruption assay, LLCPK cells with tubulin-GFP biosensor; format: cell-based, pig; conditions: 10-500 nM, 12 hour time point
Experimental: For microtubule disruption assays, LLCPK cells stably transfected with a tubulin-GFP biosensor plasmid were plated on 96 well cell culture dishes at 50-60% confluence and cultured overnight at 37° C., 5% CO2. […] The cells were then observed with the cell screening system described above, at a 12 hour time point.

caspase-3 = experiment: Caspase-3 biosensor apoptosis assay, BHK cells; format: cell-based; conditions: BHK cells transfected with the caspase 3 biosensor
Experimental: For DNA transfection, BHK cells and MCF-7 cells were cultured to 50-70% confluence in 6 well plates containing 3 ml of minimal Eagle's medium (MEM) with 10% fetal calf serum, 1 mM L-glutamine, 50 μg/ml streptomycin, 50 μg/ml penicillin, 0.1 mM non-essential amino acids, 1 mM sodium pyruvate and 10 μg/ml of bovine insulin (for MCF-7 cell only) at 37° C. in a 5% CO2 incubator for about 36 hours. The cells were washed with serum free MEM media and incubated for 5 hours with 1 ml of transfection mixture containing 1 μg of the appropriate plasmid and 4 μg of lipofectimine (BRL) in the serum free MEM media. Subsequently, the transfection medium was removed and replaced with 3 ml of normal culture media. The transfected cells were maintained in growth medium for at least 16 hours before performing selection of the stable cells based on standard molecular biology methods (Ausubel. et al 1995).
For apoptosis assays, the cells (BHK, MCF-7) stably transfected with the appropriate protease biosensor expression vector were plated on tissue culture treated 96-well plates at 50-60% confluence and cultured overnight at 37° C., 5% CO2. […]
The biosensor response is measured by quantitating the effective cytoplasm-to-nuclear translocation of the signal (see above). […]

Compound: CC(=O)O[C@H]1C(=O)[C@@]2(C)[C@H]([C@H](OC(=O)c3ccccc3)[C@]3(O)C[C@H](OC(=O)[C@H](O)[C@@H](NC(=O)c4ccccc4)c4ccccc4)C(C)=C1C3(C)C)[C@]1(OC(C)=O)CO[C@@H]1C[C@@H]2O [paclitaxel]
- Response of microtubule arrays [1]: Stabilization
- caspase activation reported by the biosensor (caspase-3): stimulated
